Test results taken from patent US20220389008A1, “4-QUINOLINONE ANTIBACTERIAL COMPOUNDS” (Janssen Sciences Ireland Unlimited Company, priority 2019, published 2022).

Tested on: Mycobacterium tuberculosis strain H37Rv ΔctaE-ΔqcrCAB
Experiment: microbe, parasite or virus in culture
Assay type: cell-based
Conditions: 240 h

Compound	IC50 [µM]
Cc1c(-c2nc3cc(-c4cccc(OC(F)(F)F)c4)ccn3n2)[nH]c2ccccc2c1=O [Compound 28]	10
Cc1c(-c2nc3ccc(OC(F)(F)F)cn3n2)[nH]c2ccccc2c1=O [Compound 30]	2.92
CN(C)C(=O)c1c(-c2nc3ccc(-c4ccc(OC(F)(F)F)cc4)cn3n2)[nH]c2ccccc2c1=O [Compound 31]	> 50
Cc1c(-c2nc3cc(Br)ccn3n2)[nH]c2ccccc2c1=O [Compound 39]	> 100
COc1cc2nc(-c3[nH]c4ccccc4c(=O)c3C)nn2cc1F [Compound 40]	> 100
O=c1c(Br)c(-c2nc3ccc(-c4ccc(OC(F)(F)F)cc4)cn3n2)[nH]c2ccccc12 [Compound 41]	33.9
Cc1c(-c2cn3ccc(-c4ccc(OC(F)(F)F)cc4)cc3n2)[nH]c2ccccc2c1=O [Compound 42]	30.7
COc1ccc2[nH]c(-c3nc4ccc(-c5ccc(OC(F)(F)F)cc5)cn4n3)c(C)c(=O)c2c1 [Compound 43]	> 100
Cc1c(-c2nc3ccc(-c4cnc(C(F)(F)F)s4)cn3n2)[nH]c2ccccc2c1=O [Compound 45]	5.96
Cc1c(-c2nc3cc(C(F)(F)F)c(Br)cn3n2)[nH]c2ccccc2c1=O [Compound 46]	> 50
Cc1c(-c2nc3ccc(Br)cn3n2)[nH]c2c(F)cc(F)cc2c1=O [Compound 57]	> 50

Tested on: Mitochondrial toxicity (Glu/Gal)
Experiment: Mitochondrial toxicity (Glu/Gal) assay
Assay type: cell-based
Set-up: key to Score: “negative” means that in the test, it was found to have low mitotoxicity (and hence no mitotoxicity alerts); “positive” means that there were some mitotoxicity alerts; “inconclusive” means that no accurate conclusion could be drawn
Conditions: galactose medium; read-out: IC50, gal
Text: The compounds of the invention/examples may have advantages associated with in vitro potency, kill kinetics (i.e. bactericidal effect) in vitro, PK properties, food effect, safety/toxicity (including liver toxicity, coagulation, 5-LO oxygenase), metabolic stability, Ames II negativity, MNT negativity, aqueous based solubility (and ability to formulate) and/or cardiovascular effect e.g. on animals (e.g. anesthetized guinea pig). The data below that was generated/calculated may be obtained using standard methods/assays, for instance that are available in the literature or which may be performed by a supplier (e.g. Microsomal Stability Assay—Cyprotex, Mitochondrial toxicity (Glu/Gal) assay—Cyprotex, as well as literature CYP cocktail inhibition assays).

Compound	IC50 [µM]
Cc1c(-c2nc3cc(-c4cccc(OC(F)(F)F)c4)ccn3n2)[nH]c2ccccc2c1=O [Compound 28]	58.7
Cc1c(-c2nc3ccc(OC(F)(F)F)cn3n2)[nH]c2ccccc2c1=O [Compound 30]	100
CN(C)C(=O)c1c(-c2nc3ccc(-c4ccc(OC(F)(F)F)cc4)cn3n2)[nH]c2ccccc2c1=O [Compound 31]	76
Cc1c(-c2nc3cc(Br)ccn3n2)[nH]c2ccccc2c1=O [Compound 39]	100
COc1cc2nc(-c3[nH]c4ccccc4c(=O)c3C)nn2cc1F [Compound 40]	200
O=c1c(Br)c(-c2nc3ccc(-c4ccc(OC(F)(F)F)cc4)cn3n2)[nH]c2ccccc12 [Compound 41]	54.7
Cc1c(-c2cn3ccc(-c4ccc(OC(F)(F)F)cc4)cc3n2)[nH]c2ccccc2c1=O [Compound 42]	200
COc1ccc2[nH]c(-c3nc4ccc(-c5ccc(OC(F)(F)F)cc5)cn4n3)c(C)c(=O)c2c1 [Compound 43]	10.6
Cc1c(-c2nc3ccc(-c4cnc(C(F)(F)F)s4)cn3n2)[nH]c2ccccc2c1=O [Compound 45]	20
Cc1c(-c2nc3cc(C(F)(F)F)c(Br)cn3n2)[nH]c2ccccc2c1=O [Compound 46]	100
Cc1c(-c2nc3ccc(Br)cn3n2)[nH]c2c(F)cc(F)cc2c1=O [Compound 57]	100

Same assay, conditions: glucose medium; read-out: IC50, glu

Compound	IC50 [µM]
Cc1c(-c2nc3cc(-c4cccc(OC(F)(F)F)c4)ccn3n2)[nH]c2ccccc2c1=O [Compound 28]	100
Cc1c(-c2nc3ccc(OC(F)(F)F)cn3n2)[nH]c2ccccc2c1=O [Compound 30]	100
CN(C)C(=O)c1c(-c2nc3ccc(-c4ccc(OC(F)(F)F)cc4)cn3n2)[nH]c2ccccc2c1=O [Compound 31]	200
Cc1c(-c2nc3cc(Br)ccn3n2)[nH]c2ccccc2c1=O [Compound 39]	100
COc1cc2nc(-c3[nH]c4ccccc4c(=O)c3C)nn2cc1F [Compound 40]	200
O=c1c(Br)c(-c2nc3ccc(-c4ccc(OC(F)(F)F)cc4)cn3n2)[nH]c2ccccc12 [Compound 41]	53.9
Cc1c(-c2cn3ccc(-c4ccc(OC(F)(F)F)cc4)cc3n2)[nH]c2ccccc2c1=O [Compound 42]	200
COc1ccc2[nH]c(-c3nc4ccc(-c5ccc(OC(F)(F)F)cc5)cn4n3)c(C)c(=O)c2c1 [Compound 43]	26.3
Cc1c(-c2nc3ccc(-c4cnc(C(F)(F)F)s4)cn3n2)[nH]c2ccccc2c1=O [Compound 45]	20
Cc1c(-c2nc3cc(C(F)(F)F)c(Br)cn3n2)[nH]c2ccccc2c1=O [Compound 46]	100
Cc1c(-c2nc3ccc(Br)cn3n2)[nH]c2c(F)cc(F)cc2c1=O [Compound 57]	100

Same assay, conditions: mitotoxicity score

Compound	Score
Cc1c(-c2nc3cc(-c4cccc(OC(F)(F)F)c4)ccn3n2)[nH]c2ccccc2c1=O [Compound 28]	negative
Cc1c(-c2nc3ccc(OC(F)(F)F)cn3n2)[nH]c2ccccc2c1=O [Compound 30]	negative
CN(C)C(=O)c1c(-c2nc3ccc(-c4ccc(OC(F)(F)F)cc4)cn3n2)[nH]c2ccccc2c1=O [Compound 31]	inconclusive
Cc1c(-c2nc3cc(Br)ccn3n2)[nH]c2ccccc2c1=O [Compound 39]	negative
COc1cc2nc(-c3[nH]c4ccccc4c(=O)c3C)nn2cc1F [Compound 40]	negative
O=c1c(Br)c(-c2nc3ccc(-c4ccc(OC(F)(F)F)cc4)cn3n2)[nH]c2ccccc12 [Compound 41]	negative
Cc1c(-c2cn3ccc(-c4ccc(OC(F)(F)F)cc4)cc3n2)[nH]c2ccccc2c1=O [Compound 42]	negative
COc1ccc2[nH]c(-c3nc4ccc(-c5ccc(OC(F)(F)F)cc5)cn4n3)c(C)c(=O)c2c1 [Compound 43]	inconclusive
Cc1c(-c2nc3ccc(-c4cnc(C(F)(F)F)s4)cn3n2)[nH]c2ccccc2c1=O [Compound 45]	negative
Cc1c(-c2nc3cc(C(F)(F)F)c(Br)cn3n2)[nH]c2ccccc2c1=O [Compound 46]	negative
Cc1c(-c2nc3ccc(Br)cn3n2)[nH]c2c(F)cc(F)cc2c1=O [Compound 57]	negative

Same assay, conditions: ratio glu/gal

Compound	Δ IC50,glu/IC50,gal
Cc1c(-c2nc3cc(-c4cccc(OC(F)(F)F)c4)ccn3n2)[nH]c2ccccc2c1=O [Compound 28]	[x]1.7
Cc1c(-c2nc3ccc(OC(F)(F)F)cn3n2)[nH]c2ccccc2c1=O [Compound 30]	[x]0
CN(C)C(=O)c1c(-c2nc3ccc(-c4ccc(OC(F)(F)F)cc4)cn3n2)[nH]c2ccccc2c1=O [Compound 31]	[x]2.63
Cc1c(-c2nc3cc(Br)ccn3n2)[nH]c2ccccc2c1=O [Compound 39]	[x]0
COc1cc2nc(-c3[nH]c4ccccc4c(=O)c3C)nn2cc1F [Compound 40]	[x]0
O=c1c(Br)c(-c2nc3ccc(-c4ccc(OC(F)(F)F)cc4)cn3n2)[nH]c2ccccc12 [Compound 41]	[x]0.99
COc1ccc2[nH]c(-c3nc4ccc(-c5ccc(OC(F)(F)F)cc5)cn4n3)c(C)c(=O)c2c1 [Compound 43]	[x]2.48
Cc1c(-c2nc3ccc(-c4cnc(C(F)(F)F)s4)cn3n2)[nH]c2ccccc2c1=O [Compound 45]	[x]0
Cc1c(-c2nc3cc(C(F)(F)F)c(Br)cn3n2)[nH]c2ccccc2c1=O [Compound 46]	[x]0
Cc1c(-c2nc3ccc(Br)cn3n2)[nH]c2c(F)cc(F)cc2c1=O [Compound 57]	[x]0

Tested on: Mycobacterium tuberculosis (strain H37Ra), cyt bd
Experiment: not given
Conditions: Mtb H37Ra; test compound 10 μM added after Compound X 0.9 μM

Compound	(i) % OCR after cyt bd inhibitor [%]
Cc1c(-c2nc3cc(-c4cccc(OC(F)(F)F)c4)ccn3n2)[nH]c2ccccc2c1=O [Compound 28]	123.3
Cc1c(-c2nc3ccc(OC(F)(F)F)cn3n2)[nH]c2ccccc2c1=O [Compound 30]	93.8
CN(C)C(=O)c1c(-c2nc3ccc(-c4ccc(OC(F)(F)F)cc4)cn3n2)[nH]c2ccccc2c1=O [Compound 31]	68.97
Cc1c(-c2nc3cc(Br)ccn3n2)[nH]c2ccccc2c1=O [Compound 39]	110.6
COc1cc2nc(-c3[nH]c4ccccc4c(=O)c3C)nn2cc1F [Compound 40]	95.33
O=c1c(Br)c(-c2nc3ccc(-c4ccc(OC(F)(F)F)cc4)cn3n2)[nH]c2ccccc12 [Compound 41]	84.09
Cc1c(-c2cn3ccc(-c4ccc(OC(F)(F)F)cc4)cc3n2)[nH]c2ccccc2c1=O [Compound 42]	80.1
COc1ccc2[nH]c(-c3nc4ccc(-c5ccc(OC(F)(F)F)cc5)cn4n3)c(C)c(=O)c2c1 [Compound 43]	109.2
Cc1c(-c2nc3ccc(-c4cnc(C(F)(F)F)s4)cn3n2)[nH]c2ccccc2c1=O [Compound 45]	94.41
Cc1c(-c2nc3cc(C(F)(F)F)c(Br)cn3n2)[nH]c2ccccc2c1=O [Compound 46]	91.4
Cc1c(-c2nc3ccc(Br)cn3n2)[nH]c2c(F)cc(F)cc2c1=O [Compound 57]	102

Same assay, conditions: Mtb H37Ra; test compound 10 μM after Compound X 0.9 μM, then CCCP 1 μM

Compound	(ii) % OCR after cccp [%]
Cc1c(-c2nc3cc(-c4cccc(OC(F)(F)F)c4)ccn3n2)[nH]c2ccccc2c1=O [Compound 28]	117.7
Cc1c(-c2nc3ccc(OC(F)(F)F)cn3n2)[nH]c2ccccc2c1=O [Compound 30]	120.2
CN(C)C(=O)c1c(-c2nc3ccc(-c4ccc(OC(F)(F)F)cc4)cn3n2)[nH]c2ccccc2c1=O [Compound 31]	120.39
Cc1c(-c2nc3cc(Br)ccn3n2)[nH]c2ccccc2c1=O [Compound 39]	133.8
COc1cc2nc(-c3[nH]c4ccccc4c(=O)c3C)nn2cc1F [Compound 40]	134.33
O=c1c(Br)c(-c2nc3ccc(-c4ccc(OC(F)(F)F)cc4)cn3n2)[nH]c2ccccc12 [Compound 41]	137.15
Cc1c(-c2cn3ccc(-c4ccc(OC(F)(F)F)cc4)cc3n2)[nH]c2ccccc2c1=O [Compound 42]	137.9
COc1ccc2[nH]c(-c3nc4ccc(-c5ccc(OC(F)(F)F)cc5)cn4n3)c(C)c(=O)c2c1 [Compound 43]	138
Cc1c(-c2nc3ccc(-c4cnc(C(F)(F)F)s4)cn3n2)[nH]c2ccccc2c1=O [Compound 45]	138.84
Cc1c(-c2nc3cc(C(F)(F)F)c(Br)cn3n2)[nH]c2ccccc2c1=O [Compound 46]	140.4
Cc1c(-c2nc3ccc(Br)cn3n2)[nH]c2c(F)cc(F)cc2c1=O [Compound 57]	149.2
